The supplement of paper PMC10307832

Columns and labels:
Assay in all cases: relative viability (nuclei count vs DMSO), 5 days (fraction); higher = more cells survive
R406 + AZD7762 = compound: COc1cc(Nc2ncc(F)c(Nc3ccc4c(n3)NC(=O)C(C)(C)O4)n2)cc(OC)c1OC [R406] + NC(=O)Nc1cc(-c2cccc(F)c2)sc1C(=O)N[C@H]1CCCNC1 [AZD7762] (partner 0.2 µM)
In short: (§1)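 Values are medians from duplicate plates. Each reflects relative viability, defined as the nuclei count of treated wells over that of vehicle wells. Lung cancer cell lines in 1536-well plates were pin-tool dosed one day after seeding with one drug alone or with a fixed anchor-drug dose plus five library-drug doses (not always all listed) in √10 steps, then fixed, stained and imaged at 4× after 5 days.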

Daporinad + Phenformin = compound: O=C(/C=C/c1cccnc1)NCCCCC1CCN(C(=O)c2ccccc2)CC1 [Daporinad] + N=C(N)NC(=N)NCCc1ccccc1 [Phenformin] (partner 250 µM)
In short: as §1

R406 + Pictilisib = compound: COc1cc(Nc2ncc(F)c(Nc3ccc4c(n3)NC(=O)C(C)(C)O4)n2)cc(OC)c1OC [R406] + CS(=O)(=O)N1CCN(Cc2cc3nc(-c4cccc5[nH]ncc45)nc(N4CCOCC4)c3s2)CC1 [Pictilisib] (partner 1 µM)
In short: as §1

R406 + Trametinib = compound: COc1cc(Nc2ncc(F)c(Nc3ccc4c(n3)NC(=O)C(C)(C)O4)n2)cc(OC)c1OC [R406] + CC(=O)Nc1cccc(-n2c(=O)n(C3CC3)c(=O)c3c(Nc4ccc(I)cc4F)n(C)c(=O)c(C)c32)c1 [Trametinib] (partner 0.02 µM)
In short: as §1

Row | Cell Line | relative viability (R406 + AZD7762; first compound 0.08 µM) | relative viability (R406 + AZD7762; first compound 0.253 µM) | relative viability (R406 + AZD7762; first compound 0.8 µM) | relative viability (R406 + AZD7762; first compound 2.53 µM) | relative viability (R406 + AZD7762; first compound 8 µM) | relative viability (Daporinad + Phenformin; first compound 0.0005 µM) | relative viability (Daporinad + Phenformin; first compound 0.005 µM) | relative viability (Daporinad + Phenformin; first compound 0.01581 µM) | relative viability (R406 + Pictilisib; first compound 0.08 µM) | relative viability (R406 + Pictilisib; first compound 0.253 µM) | relative viability (R406 + Pictilisib; first compound 0.8 µM) | relative viability (R406 + Pictilisib; first compound 2.53 µM) | relative viability (R406 + Pictilisib; first compound 8 µM) | relative viability (R406 + Trametinib; first compound 0.08 µM) | relative viability (R406 + Trametinib; first compound 0.253 µM) | relative viability (R406 + Trametinib; first compound 0.8 µM) | relative viability (R406 + Trametinib; first compound 2.53 µM) | relative viability (R406 + Trametinib; first compound 8 µM) | relative viability (Daporinad + Phenformin; first compound 0.001581 µM)
1 | HCC-78 | 0.571 | 0.861 | 0.623 | 0.619 | 0.449 | 0.619 | 0.839 | 0.819 | 0.233 | 0.219 | 0.259 | 0.173 | 0.185 | 0.757 | 0.687 | 0.749 | 0.504 | 0.424 | –
2 | IA-LM | – | – | – | – | – | – | – | – | 0.443 | 0.475 | 0.359 | 0.409 | 0.264 | – | – | – | – | – | –
3 | NCI-H322M | 0.453 | 0.54 | 0.588 | 0.36 | 0.423 | 0.793 | 0.686 | 0.436 | 0.519 | 0.484 | 0.57 | 0.235 | 0.333 | 0.515 | 0.532 | 0.452 | 0.475 | 0.421 | 0.726
4 | NCI-H3122 | 1.06 | 1.04 | 0.969 | 0.804 | 0.924 | 0.36 | 0.387 | 0.333 | 0.581 | 0.59 | 0.668 | 0.576 | 0.604 | 0.234 | 0.218 | 0.206 | 0.241 | 0.234 | 0.391
5 | NCI-H441 | 1.03 | 1.03 | 1.26 | 0.953 | 0.958 | 0.813 | 0.883 | 0.734 | 0.387 | 0.375 | 0.544 | 0.206 | 0.258 | 0.462 | 0.452 | 0.539 | 0.283 | 0.184 | 0.82
6 | COR-L23 | – | – | – | – | – | 0.422 | 0.317 | 0.194 | 0.755 | 0.926 | 1.14 | 0.681 | 0.233 | 0.627 | 0.669 | 0.682 | 0.217 | 0.338 | 0.463
7 | NCI-H2087 | 1.36 | 1.47 | 1.33 | 1.06 | 1.25 | 0.405 | 0.535 | 0.496 | 0.876 | 1.07 | 0.92 | 0.352 | 0.717 | 0.227 | 0.218 | 0.197 | 0.194 | 0.156 | 0.601
8 | NCI-H1623 | – | – | – | – | – | 0.545 | 0.613 | 0.591 | – | – | – | – | – | – | – | – | – | – | 0.519
9 | NCI-H2023 | – | – | – | – | – | 0.409 | 0.405 | 0.447 | 0.239 | 0.243 | 0.257 | 0.0848 | 0.12 | 0.499 | 0.562 | 0.582 | 0.286 | 0.129 | 0.399
10 | COR-L 105 | – | – | – | – | – | 0.491 | 0.545 | 0.607 | 0.453 | 0.401 | 0.38 | 0.366 | 0.303 | 0.444 | 0.497 | 0.432 | 0.459 | 0.395 | 0.485
11 | SK-LU-1 | – | – | – | – | – | 0.444 | 0.628 | 0.662 | 0.46 | 0.658 | 0.546 | 0.277 | 0.173 | 0.535 | 0.531 | 0.55 | 0.157 | 0.195 | 0.649
12 | NCI-H661 | – | – | – | – | – | 0.266 | 0.308 | 0.288 | 0.367 | 0.456 | 0.459 | 0.345 | 0.271 | 0.561 | 0.604 | 0.57 | 0.489 | 0.366 | 0.284
13 | SW 1573 | – | – | – | – | – | 0.352 | 0.232 | 0.18 | 0.45 | 0.499 | 0.543 | 0.422 | 0.31 | 0.548 | 0.614 | 0.628 | 0.443 | 0.193 | 0.383
14 | NCI-H522 | 0.914 | 0.921 | 0.813 | 0.823 | 0.765 | 0.654 | 0.695 | 0.682 | – | – | – | – | – | 0.779 | 0.917 | 0.787 | 0.746 | 0.599 | 0.758
15 | NCI-H1299 | – | – | – | – | – | – | – | – | 0.791 | 0.816 | 0.874 | 0.427 | 0.162 | – | – | – | – | – | –
16 | NCI-H1650 | – | – | – | – | – | 0.406 | 0.416 | 0.223 | 0.645 | 0.668 | 0.652 | 0.148 | 0.122 | 0.604 | 0.585 | 0.633 | 0.054 | 0.124 | 0.55
17 | NCI-H2009 | – | – | – | – | – | 0.447 | 0.492 | 0.337 | 0.793 | 0.76 | 0.892 | 0.289 | 0.192 | 0.275 | 0.275 | 0.323 | 0.213 | 0.136 | 0.497
18 | SW 900 | 0.536 | 0.814 | 0.787 | 0.232 | 0.146 | 0.518 | 0.798 | 0.595 | – | – | – | – | – | 0.958 | 0.805 | 0.906 | 0.764 | 0.118 | 0.674
19 | SK-MES-1 | – | – | – | – | – | 0.657 | 0.738 | 0.545 | 0.34 | 0.325 | 0.333 | 0.234 | 0.195 | 0.561 | 0.531 | 0.553 | 0.304 | 0.218 | 0.695
20 | A549 | – | – | – | – | – | 0.216 | 0.133 | 0.156 | 0.519 | 0.694 | 0.6 | 0.265 | 0.0797 | – | – | – | – | – | 0.253
21 | NCI-H520 | – | – | – | – | – | 0.554 | 0.187 | 0.22 | 0.286 | 0.408 | 0.377 | 0.191 | 0.195 | 0.665 | 0.792 | 0.935 | 0.258 | 0.124 | 0.286
22 | NCI-H1563 | – | – | – | – | – | 0.715 | 0.755 | 0.626 | 0.678 | 0.656 | 0.726 | 0.594 | 0.492 | – | – | – | – | – | 0.744
23 | ABC-1 | 0.912 | 0.769 | 0.865 | 0.858 | 0.669 | 0.257 | 0.285 | 0.285 | 1 | 0.817 | 0.72 | 0.393 | 0.45 | – | – | – | – | – | 0.244
